In brackets after ≈: the same amount, converted by molar mass.
How the values were obtained:
Assay type in all cases: functional
Aspergillus flavus [1] = assay: Antifungal activity against Aspergillus flavus at 50 ug/ml after 72 hrs by agar well diffusion method; details: read-out: DIZ
Klebsiella pneumoniae [2] = assay: Antibacterial activity against Klebsiella pneumoniae after 24 hrs by agar well diffusion method
Aspergillus flavus [3] = assay: Antifungal activity against Aspergillus flavus at 200 ug/ml after 72 hrs by agar well diffusion method; details: read-out: DIZ
Aspergillus niger [4] = assay: Antifungal activity against Aspergillus niger at 50 ug/ml after 72 hrs by agar well diffusion method; details: read-out: DIZ
Aspergillus flavus [5] = assay: Antifungal activity against Aspergillus flavus at 500 ug/ml after 72 hrs by agar well diffusion method; details: read-out: DIZ
Rhizoctonia solani [6] = assay: Antifungal activity against Rhizoctonia solani at 50 ug/ml after 72 hrs by agar well diffusion method; details: read-out: DIZ
Aspergillus niger [7] = assay: Antifungal activity against Aspergillus niger at 300 ug/ml after 72 hrs by agar well diffusion method; details: read-out: DIZ
Staphylococcus aureus [8] = assay: Antibacterial activity against Staphylococcus aureus ATCC 6538 at 50 ug/ml after 24 hrs by agar well diffusion method; details: ATCC 6538, 24 h, read-out: DIZ
Klebsiella pneumoniae [9] = assay: Antibacterial activity against Klebsiella pneumoniae at 300 ug/ml after 24 hrs by agar well diffusion method; details: read-out: DIZ
Klebsiella pneumoniae [10] = assay: Antibacterial activity against Klebsiella pneumoniae at 200 ug/ml after 24 hrs by agar well diffusion method; details: read-out: DIZ
Klebsiella pneumoniae [11] = assay: Antibacterial activity against Klebsiella pneumoniae at 500 ug/ml after 24 hrs by agar well diffusion method; details: read-out: DIZ
Escherichia coli [12] = assay: Antibacterial activity against Escherichia coli ATCC 8739 at 500 ug/ml after 24 hrs by agar well diffusion method; details: ATCC 8739, 24 h, read-out: DIZ
Klebsiella pneumoniae [13] = assay: Antibacterial activity against Klebsiella pneumoniae at 50 ug/ml after 24 hrs by agar well diffusion method; details: read-out: DIZ
Fusarium oxysporum [14] = assay: Antifungal activity against Fusarium oxysporum at 50 ug/ml after 72 hrs by agar well diffusion method; details: read-out: DIZ
Escherichia coli [15] = assay: Antibacterial activity against Escherichia coli ATCC 8739 at 200 ug/ml after 24 hrs by agar well diffusion method; details: ATCC 8739, 24 h, read-out: DIZ
Bacillus subtilis [16] = assay: Antibacterial activity against Bacillus subtilis at 100 ug/ml after 24 hrs by agar well diffusion method; details: read-out: DIZ
Bacillus subtilis [17] = assay: Antibacterial activity against Bacillus subtilis after 24 hrs by agar well diffusion method
Klebsiella pneumoniae [18] = assay: Antibacterial activity against Klebsiella pneumoniae at 100 ug/ml after 24 hrs by agar well diffusion method; details: read-out: DIZ
Staphylococcus aureus [19] = assay: Antibacterial activity against Staphylococcus aureus ATCC 6538 at 100 ug/ml after 24 hrs by agar well diffusion method; details: ATCC 6538, 24 h, read-out: DIZ
Fusarium oxysporum [20] = assay: Antifungal activity against Fusarium oxysporum at 100 ug/ml after 72 hrs by agar well diffusion method; details: read-out: DIZ
Rhizoctonia solani [21] = assay: Antifungal activity against Rhizoctonia solani at 500 ug/ml after 72 hrs by agar well diffusion method; details: read-out: DIZ
Escherichia coli [22] = assay: Antibacterial activity against Escherichia coli ATCC 8739 at 50 ug/ml after 24 hrs by agar well diffusion method; details: ATCC 8739, 24 h, read-out: DIZ
Fusarium oxysporum [23] = assay: Antifungal activity against Fusarium oxysporum at 500 ug/ml after 72 hrs by agar well diffusion method; details: read-out: DIZ
Rhizoctonia solani [24] = assay: Antifungal activity against Rhizoctonia solani at 200 ug/ml after 72 hrs by agar well diffusion method; details: read-out: DIZ
Staphylococcus aureus [25] = assay: Antibacterial activity against Staphylococcus aureus ATCC 6538 at 200 ug/ml after 24 hrs by agar well diffusion method; details: ATCC 6538, 24 h, read-out: DIZ
Aspergillus flavus [26] = assay: Antifungal activity against Aspergillus flavus at 300 ug/ml after 72 hrs by agar well diffusion method; details: read-out: DIZ
Bacillus subtilis [27] = assay: Antibacterial activity against Bacillus subtilis at 300 ug/ml after 24 hrs by agar well diffusion method; details: read-out: DIZ
Bacillus subtilis [28] = assay: Antibacterial activity against Bacillus subtilis at 200 ug/ml after 24 hrs by agar well diffusion method; details: read-out: DIZ
Rhizoctonia solani [29] = assay: Antifungal activity against Rhizoctonia solani at 300 ug/ml after 72 hrs by agar well diffusion method; details: read-out: DIZ
Escherichia coli [30] = assay: Antibacterial activity against Escherichia coli ATCC 8739 after 24 hrs by agar well diffusion method; details: ATCC 8739, 24 h
Aspergillus flavus [31] = assay: Antifungal activity against Aspergillus flavus after 72 hrs by agar well diffusion method
Fusarium oxysporum [32] = assay: Antifungal activity against Fusarium oxysporum at 300 ug/ml after 72 hrs by agar well diffusion method; details: read-out: DIZ
Rhizoctonia solani [33] = assay: Antifungal activity against Rhizoctonia solani after 72 hrs by agar well diffusion method
Staphylococcus aureus [34] = assay: Antibacterial activity against Staphylococcus aureus ATCC 6538 after 24 hrs by agar well diffusion method; details: ATCC 6538, 24 h
Escherichia coli [35] = assay: Antibacterial activity against Escherichia coli ATCC 8739 at 100 ug/ml after 24 hrs by agar well diffusion method; details: ATCC 8739, 24 h, read-out: DIZ
Escherichia coli [36] = assay: Antibacterial activity against Escherichia coli ATCC 8739 at 300 ug/ml after 24 hrs by agar well diffusion method; details: ATCC 8739, 24 h, read-out: DIZ
Aspergillus niger [37] = assay: Antifungal activity against Aspergillus niger at 200 ug/ml after 72 hrs by agar well diffusion method; details: read-out: DIZ
Staphylococcus aureus [38] = assay: Antibacterial activity against Staphylococcus aureus ATCC 6538 at 300 ug/ml after 24 hrs by agar well diffusion method; details: ATCC 6538, 24 h, read-out: DIZ
Aspergillus niger [39] = assay: Antifungal activity against Aspergillus niger at 100 ug/ml after 72 hrs by agar well diffusion method; details: read-out: DIZ
Rhizoctonia solani [40] = assay: Antifungal activity against Rhizoctonia solani at 100 ug/ml after 72 hrs by agar well diffusion method; details: read-out: DIZ
Fusarium oxysporum [41] = assay: Antifungal activity against Fusarium oxysporum after 72 hrs by agar well diffusion method
Fusarium oxysporum [42] = assay: Antifungal activity against Fusarium oxysporum at 200 ug/ml after 72 hrs by agar well diffusion method; details: read-out: DIZ
Staphylococcus aureus [43] = assay: Antibacterial activity against Staphylococcus aureus ATCC 6538 at 500 ug/ml after 24 hrs by agar well diffusion method; details: ATCC 6538, 24 h, read-out: DIZ
Bacillus subtilis [44] = assay: Antibacterial activity against Bacillus subtilis at 500 ug/ml after 24 hrs by agar well diffusion method; details: read-out: DIZ
Bacillus subtilis [45] = assay: Antibacterial activity against Bacillus subtilis at 50 ug/ml after 24 hrs by agar well diffusion method; details: read-out: DIZ
Aspergillus flavus [46] = assay: Antifungal activity against Aspergillus flavus at 100 ug/ml after 72 hrs by agar well diffusion method; details: read-out: DIZ
Aspergillus niger [47] = assay: Antifungal activity against Aspergillus niger at 500 ug/ml after 72 hrs by agar well diffusion method; details: read-out: DIZ
Aspergillus niger [48] = assay: Antifungal activity against Aspergillus niger after 72 hrs by agar well diffusion method

Question: What does the source list for `CC1(C)OC(=O)C(=Cc2c[nH]c3ccccc23)C(=O)O1`?
Answer: zone of inhibition at 50 µg/mL (Aspergillus flavus [1]): 5 mm; MIC (Klebsiella pneumoniae [2]): 10 µg/mL (≈ 36.9 µM); zone of inhibition at 200 µg/mL (Aspergillus flavus [3]): 13 mm; zone of inhibition at 50 µg/mL (Aspergillus niger [4]): 7 mm; zone of inhibition at 500 µg/mL (Aspergillus flavus [5]): 24 mm; zone of inhibition at 50 µg/mL (Rhizoctonia solani [6]): 10 mm; zone of inhibition at 300 µg/mL (Aspergillus niger [7]): 19 mm; zone of inhibition at 50 µg/mL (Staphylococcus aureus [8]): 8 mm; zone of inhibition at 300 µg/mL (Klebsiella pneumoniae [9]): 25 mm; zone of inhibition at 200 µg/mL (Klebsiella pneumoniae [10]): 20 mm; zone of inhibition at 500 µg/mL (Klebsiella pneumoniae [11]): 33 mm; zone of inhibition at 500 µg/mL (Escherichia coli [12]): 32 mm; zone of inhibition at 50 µg/mL (Klebsiella pneumoniae [13]): 11 mm; zone of inhibition at 50 µg/mL (Fusarium oxysporum [14]): 10 mm; zone of inhibition at 200 µg/mL (Escherichia coli [15]): 18 mm; zone of inhibition at 100 µg/mL (Bacillus subtilis [16]): 11 mm; MIC (Bacillus subtilis [17]): 20 µg/mL (≈ 73.7 µM); zone of inhibition at 100 µg/mL (Klebsiella pneumoniae [18]): 16 mm; zone of inhibition at 100 µg/mL (Staphylococcus aureus [19]): 12 mm; zone of inhibition at 100 µg/mL (Fusarium oxysporum [20]): 14 mm; zone of inhibition at 500 µg/mL (Rhizoctonia solani [21]): 32 mm; zone of inhibition at 50 µg/mL (Escherichia coli [22]): 10 mm; zone of inhibition at 500 µg/mL (Fusarium oxysporum [23]): 31 mm; zone of inhibition at 200 µg/mL (Rhizoctonia solani [24]): 19 mm; zone of inhibition at 200 µg/mL (Staphylococcus aureus [25]): 16 mm; zone of inhibition at 300 µg/mL (Aspergillus flavus [26]): 17 mm; zone of inhibition at 300 µg/mL (Bacillus subtilis [27]): 17 mm; zone of inhibition at 200 µg/mL (Bacillus subtilis [28]): 14 mm; zone of inhibition at 300 µg/mL (Rhizoctonia solani [29]): 24 mm; MIC (Escherichia coli [30]): 10 µg/mL (≈ 36.9 µM); MIC (Aspergillus flavus [31]): 35 µg/mL (≈ 129 µM); zone of inhibition at 300 µg/mL (Fusarium oxysporum [32]): 21 mm; MIC (Rhizoctonia solani [33]): 25 µg/mL (≈ 92.2 µM); MIC (Staphylococcus aureus [34]): 20 µg/mL (≈ 73.7 µM); zone of inhibition at 100 µg/mL (Escherichia coli [35]): 15 mm; zone of inhibition at 300 µg/mL (Escherichia coli [36]): 22 mm; zone of inhibition at 200 µg/mL (Aspergillus niger [37]): 15 mm; zone of inhibition at 300 µg/mL (Staphylococcus aureus [38]): 20 mm; zone of inhibition at 100 µg/mL (Aspergillus niger [39]): 11 mm; zone of inhibition at 100 µg/mL (Rhizoctonia solani [40]): 15 mm; MIC (Fusarium oxysporum [41]): 25 µg/mL (≈ 92.2 µM); zone of inhibition at 200 µg/mL (Fusarium oxysporum [42]): 17 mm; zone of inhibition at 500 µg/mL (Staphylococcus aureus [43]): 27 mm; zone of inhibition at 500 µg/mL (Bacillus subtilis [44]): 25 mm; zone of inhibition at 50 µg/mL (Bacillus subtilis [45]): 6 mm; zone of inhibition at 100 µg/mL (Aspergillus flavus [46]): 10 mm; zone of inhibition at 500 µg/mL (Aspergillus niger [47]): 26 mm; MIC (Aspergillus niger [48]): 30 µg/mL (≈ 111 µM)
